From patent US20040063790A1, “Methods for inhibition of angiogenesis” (The Scripps Research Institute, priority 1996, published 2004)
[ ]: non-standard residue; d: D form.

Test system: M21-L melanoma tumor
Assay: In vivo chimeric mouse:human assay
Set-up: species or system SCID mouse
Conditions: intravenous, FIG. 18
Protocol: An in vivo chimeric mouse:human model was generated by replacing a portion of skin from a SCID mouse with human neonatal foreskin (FIG. 4). After the skin graft was established, the human foreskin was inoculated with carcinoma cells. After a measurable tumor was established, either an αvβ3 antagonist or PBS was injected into the mouse tail vein. Following a 2-3 week period, the tumor was excised and analyzed by weight and histology.
The in vivo chimeric mouse:human model is prepared essentially as described in Yan, et al., J. Clin. Invest., 91:986-996 (1993). Briefly, a 2 cm^2 square area of skin was surgically removed from a SCID mouse (6-8 weeks of age) and replaced with a human foreskin. The mouse was anesthetized and the hair removed from a 5 cm^2 area on each side of the lateral abdominal region by shaving. Two circular graft beds of 2 cm^2 were prepared by removing the full thickness of skin down to the fascia. Full thickness human skin grafts of the same size derived from human neonatal foreskin were placed onto the wound beds and sutured into place. […]
In a procedure similar to that described above for monoclonal antibodies, peptide antagonists of αvβ3 were injected intravenously into the tail vein of SCID mice having measurable M21-L tumors. […] The mean volume and weight of resected tumors following treatment were determined with the results respectively shown in FIGS. 19A and 19B.

For “cyclo (RADfV) (cyclo(RAD[dF]V); SMILES CC(C)[C@@H]1NC(=O)[C@@H](Cc2ccccc2)NC(=O)[C@H](CC(=O)O)NC(=O)[C@H](C)NC(=O)[C@H](CCCNC(=N)N)NC1=O) [Peptide 69601, reference compound]”, the tumor volume was “approximately 360 mm^3”.
